# Measurements taken from patent US7582424B2 (priority 2000, dated 2009).
# Key:
# [1] = test system: Ace-induced Isc response by T84 cell monolayers; experiment: cells; assay type: cell-based, human
# [2] = test system: ACE-stimulated Isc in 16HBE14o- cell monolayers; assay type: cell-based, human
# polarized T84 cells = details: cited from earlier work
# T84 cell monolayers = assay type: cell-based, human
# cGMP = assay type: cell-based
# cAMP = assay type: cell-based
# chloride secretion = details: cited from earlier work
molecule,measurement,setting,value
"CC(=O)OCOC(=O)CN(CC(=O)OCOC(C)=O)c1ccccc1OCCOc1ccccc1N(CC(=O)OCOC(C)=O)CC(=O)OCOC(C)=O [BAPTA, 1,2-bis(2-aminophenoxy)ethane-N,N,N′,N′-tetraacetic acid (BAPTA)-AM]",effect on Ace-induced Isc,[1],near ablation
"O=S(=O)(O)c1cc(N=C=S)ccc1C=Cc1ccc(N=C=S)cc1S(=O)(=O)O.[Na] [DIDS, 4,4′-diisothiocyanostilbene-2,2′-disulfonic acid, sodium]",inhibition at 500 µM,"[1]; Homo sapiens, T84, read-out: inhibition of the Ace-induced Isc response",50%
same,decrease in ACE-stimulated Isc,[2],40%
same,inhibition of forskolin-induced Isc response,polarized T84 cells,40%
same,inhibition of thapsigargin-induced Isc response,polarized T84 cells,100%
CCCCNc1cc(C(=O)O)cc(S(N)(=O)=O)c1Oc1ccccc1 [bumetanide],effect by itself on Isc or PD,T84 cell monolayers,no effect
same,effect on Ace action when added after Ace,[1],reverses
same,inhibition at 100 µM,"[1]; Homo sapiens, T84, read-out: inhibition of the action of Ace (Isc)",~60%
C[N+](C)(C)CCOC(N)=O [carbachol],effect on cellular cGMP,cGMP,no significant effect
same,effect of carbachol pretreatment on thapsigargin-induced chloride secretion (Isc response),T84 cell monolayers,blocks
same,"peak Isc, agent alone",T84 cell monolayers,9.8±1.1 μAmp/cm^2
same,return of Isc nearly to baseline,T84 cell monolayers,≤ 10 min
same,"time of peak Isc, agent alone",T84 cell monolayers,4 min
same,effect on cellular cAMP,cAMP,no significant effect
Clc1ccccc1C(c1ccccc1)(c1ccccc1)n1ccnc1 [clotrimazole],inhibition of carbachol-dependent secretion,chloride secretion,84%
same,reduction in Ace-stimulated Isc,[1],92%
O=C1CN(/N=C/c2ccc(-c3ccc([N+](=O)[O-])cc3)o2)C(O)=N1 [dantrolene],inhibition at 50 µM,"[1]; Homo sapiens, T84, read-out: inhibition of Ace-induced Isc response",~70%
C=C[C@@]1(C)CC(=O)[C@]2(O)[C@@]3(C)[C@@H](O)CCC(C)(C)[C@@H]3[C@H](O)[C@H](OC(C)=O)[C@@]2(C)O1 [forskolin],effect on cellular cGMP,cGMP,no effect
same,"mean peak Isc, forskolin followed by carbachol",T84 cell monolayers,69.3±2.4 μAmps/cm^2
same,"predicted additive effect, forskolin and carbachol, mean peak Isc",T84 cell monolayers,49.0±2.9
O=c1c(-c2ccc(O)cc2)coc2cc(O)cc(O)c12 [genistein],effect on the Isc response to Ace,[1],no effect
C[C@@H]1O[C@@H](O[C@H]2C[C@@H](O)[C@]3(CO)[C@H]4[C@H](O)C[C@]5(C)[C@@H](C6=CC(=O)OC6)CC[C@]5(O)[C@@H]4CC[C@]3(O)C2)[C@H](O)[C@H](O)[C@H]1O [ouabain],effect on Ace-induced Isc,[1],inhibits and reverses
C/C=C(/C)C(=O)O[C@H]1C(C)=C2[C@H]([C@@H]1OC(=O)CCCCCCC)[C@@](C)(OC(C)=O)C[C@H](OC(=O)CCC)[C@@]1(O)[C@H]2OC(=O)[C@@]1(C)O [thapsigargin],"mean peak Isc, agent alone",T84 cell monolayers,10.2±4.3
COc1ccc(CCN(C)CCCC(C#N)(c2ccc(OC)c(OC)c2)C(C)C)cc1OC (centres unmarked) [verapamil],effect on Ace-induced Isc response,[1],no significant effect
NPPB,decrease in ACE-stimulated Isc,[2],~80%
ω-conotoxin,effect on Ace-induced Isc response,[1],no significant effect
